Values quoted from earlier work in patent US20070208072A1, “Maleate salt of tegaserod and crystalline forms thereof” (priority 2006, published 2007).

Conditions: white to off-white crystalline powder

For `CCCCCNC(=N)N/N=C/c1c[nH]c2ccc(OC)cc12.O=C(O)/C=C\C(=O)O` [Tegaserod maleate], the solubility in ethanol (ethanol) is given as “slightly soluble” and the solubility in water (water) is given as “very slightly soluble”.
